The record followed here is ChEMBL document CHEMBL1126409, “Synthesis and biological activity of nor- and homo-5,10-dideazatetrahydrofolic acid” (Bioorg Med Chem Lett, 1992).

pKi: −log10 of the molar value. ≈ marks a conversion by molar mass, not a printed value.

One experiment deals with CCRF-CEM. Briefly: The compound was tested for its cytotoxicity against CCRF-CEM human leukemic cells using 72 hrs assay. In kind it is functional, cell-based.
Experiment [1] addresses T1, Trifunctional purine biosynthetic protein adenosine-3 (Mus musculus, UniProt Q64737).
T1 sequence (Q64737 whole entry): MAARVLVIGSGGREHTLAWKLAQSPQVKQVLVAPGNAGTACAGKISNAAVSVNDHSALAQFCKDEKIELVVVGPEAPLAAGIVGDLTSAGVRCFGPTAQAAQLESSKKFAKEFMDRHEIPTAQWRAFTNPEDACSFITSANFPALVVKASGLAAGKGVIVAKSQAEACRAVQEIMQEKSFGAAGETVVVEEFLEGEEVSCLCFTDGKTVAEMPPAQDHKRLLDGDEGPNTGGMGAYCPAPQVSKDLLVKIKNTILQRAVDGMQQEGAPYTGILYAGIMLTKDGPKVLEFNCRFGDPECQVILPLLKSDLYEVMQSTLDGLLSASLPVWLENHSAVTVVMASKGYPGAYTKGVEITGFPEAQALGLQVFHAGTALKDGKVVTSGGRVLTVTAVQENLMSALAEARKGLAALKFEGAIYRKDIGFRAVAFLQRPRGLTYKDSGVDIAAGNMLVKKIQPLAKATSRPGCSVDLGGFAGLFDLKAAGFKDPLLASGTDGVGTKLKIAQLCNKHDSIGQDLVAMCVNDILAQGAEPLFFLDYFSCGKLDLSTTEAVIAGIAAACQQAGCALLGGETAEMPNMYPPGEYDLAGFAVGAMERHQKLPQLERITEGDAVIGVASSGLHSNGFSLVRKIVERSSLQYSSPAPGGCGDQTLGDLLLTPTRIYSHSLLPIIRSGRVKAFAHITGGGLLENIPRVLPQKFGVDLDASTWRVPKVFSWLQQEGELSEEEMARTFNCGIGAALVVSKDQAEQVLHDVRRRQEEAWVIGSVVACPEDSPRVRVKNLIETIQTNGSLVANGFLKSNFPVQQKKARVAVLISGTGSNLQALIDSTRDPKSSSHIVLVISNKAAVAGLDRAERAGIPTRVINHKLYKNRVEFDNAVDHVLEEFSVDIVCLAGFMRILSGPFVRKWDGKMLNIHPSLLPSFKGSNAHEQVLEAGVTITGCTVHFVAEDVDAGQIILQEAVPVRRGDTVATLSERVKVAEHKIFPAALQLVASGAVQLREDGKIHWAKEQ
The experiment is described as follows: Inhibitory activity against glycinamide ribonucleotide formyltransferase (GARFT) from L1210 murine leukemic cells. In kind it is cell-based.

In the case of `Nc1nc(O)c2c(n1)NCC(CCCc1ccc(C(=O)N[C@H](CCC(=O)O)C(=O)O)cc1)C2` (stereo not given in full), the midpoint of inhibition with CCRF-CEM, the IC50, lay at 8 ng/mL (≈ 0.0175 µM).

On to `Nc1nc(O)c2c(n1)NCC(Cc1ccc(C(=O)N[C@H](CCC(=O)O)C(=O)O)cc1)C2` (stereo not given in full), for which the negative logarithm of the Ki (pKi) (commonly −log10 of the Ki, conventionally taken in molar units) in experiment [1] was 12.20. Also, it took 26 ng/mL (≈ 0.0605 µM) to reach half-maximal inhibition with CCRF-CEM (IC50).

In turn, `Nc1nc2c(c(=O)[nH]1)C[C@@H](CCc1ccc(C(=O)N[C@@H](CCC(=O)O)C(=O)O)cc1)CN2` [LOMETREXOL] had a pKi in experiment [1] of 6.92. In the experiment with CCRF-CEM, the 50% inhibitory concentration (IC50) (as a rule, the point on the concentration scale where inhibition reaches its midpoint) was 7 ng/mL (≈ 0.0158 µM).
